The text below walks through data of paper PMC6983002, “Identification and Biological Evaluation of CK2 Allosteric Fragments through Structure-Based Virtual Screening” (Molecules, 2020).

Where two headings read alike, the source gives them in different places.

In one test the target is CK2α (Homo sapiens, UniProt P68400). The experiment in a line: ADP-Glo kinase assay, CK2 inhibition. The settings on record: for inhibition at 256 µM: 256 μM compound; for inhibition at 1024 µM: 1024 μM compound, read-out: inhibition rate at 1024 μM. It counts as biochemical. The method, then: In vitro CK2 kinase inhibition assay were carried out for the six compounds using ADP-Glo^TM kinase assay. […] As indicated in Table 1 and Figure 5a, these compounds presented the inhibitory effect on CK2α activity to different extent. At the concentration of 16 μM, compound 3 inhibited nearly 50% of CK2α activity. However, at the same concentration, other compounds had only 20% inhibitory activity. Furthermore, except compound 2 and 6, the inhibition rates of these compounds were about 70% and 30% at 256 μM, respectively, with the dose-dependent manner. The ADP-Glo^TM Kinase Assay (Promega, Madison, WI, USA) was used to test the CK2 inhibition effects of these compounds [30, 31]. As indicated by the relevant studies, competitive and noncompetitive inhibitors show the increased and similar IC50 values with increasing concentrations of ATP, respectively. Therefore, we were able to distinguish between ATP competitive and noncompetitive inhibitors of CK2 by exploring whether the IC50 value of inhibitors will change or not at 10 and 100 μM ATP. The kinase reaction was performed in 25 μL mixture containing 10 ng casein kinase 2α, 0.1 µg/μL casein protein, 10 µM or 100 µM ATP, 1× reaction buffer and serially diluted fragments (or DMSO for control). After 60 min incubation at room temperature, 25 μL of ADP-Glo^TM Reagent was added to terminate the kinase reaction and deplete the remaining ATP. Then 50 μL Kinase Detection Reagent was added to convert ADP to ATP within 30 min, and allow the newly synthesized ATP to produce a luminescence signal using luciferase/luciferin reaction, which was recorded by the luminescence panel of Microplate Reader (Enspire2300-001A, Perkin Elmer, Waltham, MA, USA).The luminescent signal is proportional to the ADP concentration produced and correlated with the kinase activity.
Sequence of CK2α (P68400 whole entry): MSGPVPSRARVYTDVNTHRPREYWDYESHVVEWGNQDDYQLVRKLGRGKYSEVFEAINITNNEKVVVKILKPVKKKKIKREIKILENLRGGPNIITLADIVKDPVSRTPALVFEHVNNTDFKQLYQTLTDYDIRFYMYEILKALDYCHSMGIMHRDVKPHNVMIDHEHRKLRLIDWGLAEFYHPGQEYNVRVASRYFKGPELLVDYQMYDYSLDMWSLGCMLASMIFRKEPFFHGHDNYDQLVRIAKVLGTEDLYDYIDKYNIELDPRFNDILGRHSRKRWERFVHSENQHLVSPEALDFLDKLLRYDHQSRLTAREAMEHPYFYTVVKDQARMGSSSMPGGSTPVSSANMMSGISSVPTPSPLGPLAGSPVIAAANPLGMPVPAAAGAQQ
For orientation: In ADP-Glo the light output rises with the ADP produced.

For another test, the system named is A549 cancer cells. The test is described as follows: CCK-8 cell proliferation assay, A549. It counts as cell-based. The settings on record: Homo sapiens, A549, 48 h treatment, read-out: IC50, inhibition of A549 cell proliferation. Here is the method:
With the aim of investigating the anti-cancer cell proliferative activity of the CK2 inhibitors, compound 3 and 4 was tested against human cancer cell lines based on Cell Counting Kit-8 (CCK-8) assay. […] We presumed that the functional uracil group of two compounds, which is also presented in the anti-cancer hits 5-fluorouracil, is essential and indispensable for anti-cancer activity.
Cell Counting Kit-8 (CCK-8 Dojindo Laboratories, Kyushu, Japan) assays was used to assess the cytotoxic activities of compound 3 and 4. A549 and HeLa cancer cells were seeded in 96-well flat-bottom culture plate at 2 × 10^4 cells/well and then cultured in an incubator of 5% CO2 and 37 °C for 24 h. After cells adherence, the cells were treated with targeted compounds at various concentrations for 48 h. Blank wells (containing culture medium only) and negative wells (untreated cells) served as controls. Following, 10 μL CCK-8 solutions was add to each well and incubated for 2 h at 37 °C, the absorbance was measured at 450 nm by using a microplate reader (Enspire 2300-001A, Perkin Elmer, Waltham, MA, USA).
On the technique in general: Tetrazolium dyes change colour on reduction, which living cells bring about.

The mark [1] stands for this setting: concentration-response, 10 μM ATP where stated, read-out: IC50 against CK2α.

`COc1ccc(C(=O)Nc2ccc(C(N)=O)cc2)cc1Br` [Compound 1]: testing at 16 µM at CK2α (16 μM compound) gave an inhibition of 14%. Further, on CK2α, the inhibition – broadly, the share of the control response that was lost under treatment – at 256 µM was found to be 27%.

For `COc1ccc(C(=O)Nc2ccc3[nH]c(=O)[nH]c3c2)cc1Br` [Compound 2], 16 µM produced 16% inhibition against CK2α (16 μM compound). In addition, at 256 µM the inhibition against CK2α was 19%.

Take `Cc1ccc(C(=O)Nc2c[nH]c(=O)[nH]c2=O)cc1C` [Compound 3]: the inhibition at 16 µM against CK2α (16 μM compound) was ~50%. Moreover, the %Inhibition (usually how much of the control response was suppressed) at 16 μM on CK2α (16 μM compound, 16 µM) stood at 52%. At CK2α (64 μM compound), the inhibition at 64 µM was > 50%. In addition, the IC50 on CK2α (100 μM ATP, read-out: IC50 against CK2α in the presence of 100 μM ATP) was determined as 10.2 µM; on CK2α (setting [1]) it was 13 µM; in the test with A549 cancer cells, 23.1 µM. Besides, at 256 µM the inhibition at CK2α was 72%. At CK2α (IC50 compared at 10 μM and 100 μM ATP), the “mode of inhibition with respect to ATP” value is given as “non-ATP competitive”.

`O=C(Cc1cccc2ccccc12)Nc1c[nH]c(=O)[nH]c1=O` [Compound 4]: on CK2α (16 μM compound), the inhibition at 16 µM was found to be 22%. At CK2α, this compound yielded an inhibition at 256 µM of 40%. Besides, the IC50 on CK2α (setting [1]) is ≤ 1020 µM; in the test on A549 cancer cells, 8.8 µM.

On to `Cc1c(Cl)cccc1NC(=O)CC1NCCNC1=O` (stereo not shown) [Compound 5], for which 16 µM produced 16% inhibition at CK2α (16 μM compound). Also, at CK2α, the inhibition at 256 µM came to 29% and the inhibition at 1024 µM is < 50%.

Turning to `Nc1cc(=O)nc(SCc2ccccc2Cl)[nH]1` [Compound 6], the inhibition at 16 µM on CK2α (16 μM compound) turned out to be 12%. On CK2α, at 256 µM the inhibition was 18% and the inhibition at 1024 µM was < 50%.
